Measurements as given in patent US20070218475A1, “Efficient drug screening for protein targets” (priority 2005, published 2007).
Where two headings read alike, the source gives them in different places.

How the values were obtained:
Smo [1] = biological target: T1, Smo (Mus musculus, UniProt P56726); experiment: Photoaffinity labeling of Smo with 125I-labeled PA-cyclopamine; format: binding
T1 construct: expressed in transfected cells; host or cells: Cos-1

SmoΔCRD = biological target: T2, SmoΔCRD (Mus musculus, UniProt P56726, DEL68-182); experiment: Fluorescence (BODIPY-cyclopamine) binding assay, Cos-1 cells expressing SmoΔCRD; conditions: 150 nM KAAD-cyclopamine
T2 construct: expressed in transfected cells; host or cells: Cos-1
T2 sequence (P56726 with tags, fused parts or gaps DEL68-182): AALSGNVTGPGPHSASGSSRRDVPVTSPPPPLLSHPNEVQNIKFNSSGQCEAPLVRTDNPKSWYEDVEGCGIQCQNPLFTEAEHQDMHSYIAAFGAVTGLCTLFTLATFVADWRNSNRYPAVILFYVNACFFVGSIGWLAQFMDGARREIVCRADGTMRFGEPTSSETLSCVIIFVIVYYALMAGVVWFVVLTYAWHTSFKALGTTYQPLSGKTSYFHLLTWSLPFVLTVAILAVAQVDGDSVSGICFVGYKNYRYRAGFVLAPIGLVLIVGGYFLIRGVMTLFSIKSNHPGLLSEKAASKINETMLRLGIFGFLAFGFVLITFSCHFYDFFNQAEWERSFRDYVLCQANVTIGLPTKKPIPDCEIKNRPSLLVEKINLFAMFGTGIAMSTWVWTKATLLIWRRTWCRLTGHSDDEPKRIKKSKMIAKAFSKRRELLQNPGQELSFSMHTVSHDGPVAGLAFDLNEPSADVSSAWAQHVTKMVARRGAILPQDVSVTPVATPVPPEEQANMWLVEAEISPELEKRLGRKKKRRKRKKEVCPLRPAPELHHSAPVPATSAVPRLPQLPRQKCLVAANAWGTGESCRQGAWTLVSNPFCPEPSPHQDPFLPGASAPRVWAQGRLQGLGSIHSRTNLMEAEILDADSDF
Excerpt: (§1) Preparation of Smo fusion proteins and deletion mutants: Both Smo-Myc3 and SmoA1-Myc3 are C-terminally fused to three consecutive Myc epitopes. […] Smo-GFP is comprised of green fluorescent protein fused to the C-terminus of Smo, and the fluorescent proteins in SmoA1-YFP, and SmoA1-GFP are similarly fused to the C-terminus of SmoA1. All constructs were generated by PCR and verified by DNA sequencing.
(§2) For flow cytometry experiments, the cells were then trypsinized, collected by centrifugation, resuspended in phenol red-free DMEM containing 0.5% bovine calf serum, and analyzed for green fluorescence (FACScan, Beckton Dickinson). […] Curve fitting analysis was performed with Kaleidograph (Synergy Software).

Shh signaling [2] = conditions: read-out: IC50 in the Shh-LIGHT2 assay, Taipale et al. 2000; cited from earlier work
SmoA1-GFP = biological target: T3, SmoA1-GFP (Mus musculus, UniProt P56726, W539L); experiment: Localization study of SmoA1-GFP in C3H/10T1/2 cells; format: cell-based
T3 construct: expressed in transfected cells; host or cells: C3H/10T1/2
T3 sequence (P56726 33-793 W539L): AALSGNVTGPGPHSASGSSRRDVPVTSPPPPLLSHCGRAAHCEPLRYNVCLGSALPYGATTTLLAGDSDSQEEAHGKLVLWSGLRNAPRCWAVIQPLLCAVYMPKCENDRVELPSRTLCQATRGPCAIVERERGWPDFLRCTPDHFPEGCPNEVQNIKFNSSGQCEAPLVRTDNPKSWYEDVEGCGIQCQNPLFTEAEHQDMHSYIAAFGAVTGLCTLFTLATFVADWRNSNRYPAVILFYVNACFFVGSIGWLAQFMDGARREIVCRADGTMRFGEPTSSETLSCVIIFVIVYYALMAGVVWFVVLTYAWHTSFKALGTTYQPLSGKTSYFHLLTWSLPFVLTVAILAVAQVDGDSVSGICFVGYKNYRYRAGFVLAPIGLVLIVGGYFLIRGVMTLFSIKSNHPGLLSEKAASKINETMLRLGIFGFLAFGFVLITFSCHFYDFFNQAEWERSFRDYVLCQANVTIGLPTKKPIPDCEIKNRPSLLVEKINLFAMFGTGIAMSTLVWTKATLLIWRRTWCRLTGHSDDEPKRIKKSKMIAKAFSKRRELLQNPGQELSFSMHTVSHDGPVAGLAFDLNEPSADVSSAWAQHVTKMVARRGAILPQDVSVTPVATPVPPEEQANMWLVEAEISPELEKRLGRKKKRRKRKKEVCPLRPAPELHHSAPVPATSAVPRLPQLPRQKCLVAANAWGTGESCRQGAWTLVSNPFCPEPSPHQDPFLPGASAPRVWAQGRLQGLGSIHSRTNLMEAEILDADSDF
Protocol: Localization studies of Smo and SmoA1 proteins: C3H/10T1/2 cells (ATCC) were cultured in DMEM containing 10% fetal bovine serum, 0.5 μg/ml ZnSO4 and β-mercaptoethanol (3.5 μL/500 ml DMEM) on glass coverslips (Bioptechs) in […]. […] To assess SmoA1 subcellular localization, either an ER marker (pECFP-ER; Clontech) or a Golgi marker (pECFP-Golgi; Clontech) was cotransfected with the SmoA1-YFP construct. […] Fluorescent protein illumination, detection and imaging was performed on a Zeiss inverted microscope outfitted with a Xenon light source (Lambda DG4; Sutter instruments), single or dual-pass filters (Chroma Technologies), and a cooled CCD camera (Roper Scientific). Images were acquired and processed with Metamorph software (Universal Images).

Smo [3] = biological target: T1, Smo; experiment: Fluorescence (BODIPY-cyclopamine) binding assay, Smo-expressing Cos-1 cells
Protocol: as §2

SmoΔCT = biological target: T4, SmoΔCT (Mus musculus, UniProt P56726); experiment: Fluorescence (BODIPY-cyclopamine) binding assay, Cos-1 cells expressing SmoΔCT; conditions: 150 nM KAAD-cyclopamine
T4 construct: expressed in transfected cells; host or cells: Cos-1
T4 sequence (P56726 33-555 limits assumed): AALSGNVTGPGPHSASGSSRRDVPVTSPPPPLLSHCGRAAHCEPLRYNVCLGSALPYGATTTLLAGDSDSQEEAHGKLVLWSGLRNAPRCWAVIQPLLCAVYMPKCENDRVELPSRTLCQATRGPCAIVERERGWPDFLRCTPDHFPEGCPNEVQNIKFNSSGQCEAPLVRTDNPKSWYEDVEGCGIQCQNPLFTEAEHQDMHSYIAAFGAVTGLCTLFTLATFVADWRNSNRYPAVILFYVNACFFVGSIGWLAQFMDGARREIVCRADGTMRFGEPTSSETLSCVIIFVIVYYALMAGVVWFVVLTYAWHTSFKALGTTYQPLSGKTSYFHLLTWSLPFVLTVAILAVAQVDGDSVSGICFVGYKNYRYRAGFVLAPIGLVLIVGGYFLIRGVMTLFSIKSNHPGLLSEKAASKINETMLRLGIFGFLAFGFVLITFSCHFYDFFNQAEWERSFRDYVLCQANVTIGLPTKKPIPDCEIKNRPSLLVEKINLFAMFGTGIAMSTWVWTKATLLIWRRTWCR
Excerpt: as §1, §2

SmoA1-Myc3 = biological target: T5, SmoA1-Myc3 (Mus musculus, UniProt P56726, W539L); experiment: Endo H digestion of SmoA1-Myc3 (glycosylation state) in Cos-1 cells; format: cell-based; conditions: 5 μM KAAD-cyclopamine
T5 construct: expressed in transfected cells; host or cells: Cos-1
T5 sequence (P56726 33-793 W539L): as the sequence (P56726 33-793 W539L) above
Protocol: Endo H digestion of Smo proteins: Cos-1 cells were cultured in DMEM containing 10% fetal bovine serum in 6-well plates and transfected with Smo-Myc3 or SmoA1-Myc3 expression vectors (1 μg/well). One day after transfection, 5 μM KAAD-cyclopamine (in MeOH, final concentration 0.1%) was added to a well of the SmoA1-Myc3-expressing cells. Two days after transfection, each well of cells washed twice with PBS and lysed with 300 μL of RIPA buffer (50 mM Tris-Cl, pH 7.5, 150 mM NaCl, 1% NP-40, 0.5% sodium deoxycholate, 1 mM EDTA, 1 (μg/ml leupeptin, 1 μg/ml aprotinin, 0.2 mM phenylmethylsulfonyl fluoride). Cell lysates were centrifuged at 20,000×g for 15 minutes at 4° C., and the supernatant was then centrifuged at 100,000×g for 30 minutes. The supernatant of the second centrifugation was then used for glycosidase treatments and/or SDS-PAGE. For glycosidase treatments, 45 μL of cell lysate was denatured in 0.5% SDS, 1% β-mercaptoethanol for 10 minutes at room temperature and then incubated in 50 mM sodium citrate (pH 5.5) and 50 units of endoglycosidase-H (New England Biolabs) at 37° C. overnight. The anti-Myc monoclonal antibody was used for western blotting, following SDS-PAGE separation and protein transfer to nitrocellulose.

[4] = Keeler and Binns 1965; Berman et al. 2002; cited from earlier work
Shh signaling [5] = experiment: Shh-LIGHT2 assay for Hh pathway activation (Gli-dependent luciferase reporter); format: cell-based, mouse
SmoA1 = biological target: T6, SmoA1 (Mus musculus, UniProt P56726, W539L); experiment: Photoaffinity labeling of SmoA1 with 125I-labeled PA-cyclopamine; format: binding; conditions: Cos-1 cells, SmoA1-Myc3
T6 construct: expressed in transfected cells; host or cells: Cos-1
T6 sequence (P56726 33-793 W539L): as the sequence (P56726 33-793 W539L) above
Protocol: Photoaffinity labeling of Smo proteins: Cos-1 cells were cultured in 6-well plates and transfected with Smo-Myc3 or SmoA1-Myc3 expression vectors (1 μg/well). Two days after transfection, each well was incubated with 1 μCi of ^125I-labeled PA-cyclopamine (˜0.5 nM final concentration) in phenol red-free DMEM containing 0.5% bovine calf serum and various concentrations of the indicated compounds for 10 minutes at 37° C. Solvent vehicle alone (MeOH or DMSO) was used as a control in these experiments. PA-cyclopamine was then activated by 254 nm light (80,000 μJ/cm^2; Stratalinker UV-cross-linker) at room temperature. The cells were immediately chilled on ice, removed from the plates by scraping, and then directly lysed and sonicated in SDS-PAGE loading buffer. Total cell lysates were separated by SDS-PAGE and transferred to nitrocellulose for analysis by autoradiography and western blotting with an anti-Myc monoclonal antibody (9E10; Santa Cruz Biotechnology).

T1 sequence (P56726 33-793): as the sequence (P56726 33-793 W539L) above, with L507W counted along it

**Q.** With `CC1=C2C[C@H]3[C@@H](CC=C4CC(=O)CC[C@@]43C)[C@@H]2CC[C@]12O[C@@H]1C[C@H](C)CN(CCNC(=O)CCCCCNC(=O)CCc3ccccc3)[C@H]1[C@H]2C` [KAAD-cyclopamine] as the compound, how does the “competition of PA-cyclopamine labeling of Smo-Myc3” value (Smo [1]; 1.5 μM KAAD-cyclopamine, Cos-1 cells) read?
**A.** inhibited

**Q.** What about the “inhibition of BODIPY-cyclopamine binding to cells expressing SmoΔCRD” value (SmoΔCRD) of the same compound?
**A.** inhibited

**Q.** And the IC50 (Shh signaling [2])?
**A.** 20 nM

**Q.** What about the “ER-localization of SmoA1-GFP” value (SmoA1-GFP; 10 μM) of the same compound?
**A.** reversed

**Q.** And the “inhibition of BODIPY-cyclopamine binding to cells expressing wildtype Smo” value (Smo [3]; 150 nM KAAD-cyclopamine)?
**A.** inhibited

**Q.** And the Kd (Smo [3]; competition of 5 nM BODIPY-cyclopamine binding, flow cytometry, Cos-1 cells, read-out: apparent dissociation constant (Kd), KAAD-cyclopamine/Smo complex)?
**A.** 23 nM

**Q.** And the “inhibition of BODIPY-cyclopamine binding to cells expressing SmoΔCT” value (SmoΔCT)?
**A.** inhibited

**Q.** What about the “shift in SmoA1 glycosylation state (endo H)” value (SmoA1-Myc3) of the same compound?
**A.** partial conversion of SmoA1 to an endo H-resistant form

**Q.** Which “ER-localization of SmoA1-GFP” value (SmoA1-GFP; 1 μM) does the source give for `CNC1CCC(N(Cc2cccc(-c3ccncc3)c2)C(=O)c2sc3ccccc3c2Cl)CC1` (stereo not drawn) [SAG] here?
**A.** reversed

**Q.** For `CC1=C2C[C@H]3[C@@H](CC=C4C[C@@H](O)CC[C@@]43C)[C@@H]2CC[C@]12O[C@@H]1C[C@H](C)CN[C@H]1[C@H]2C` [cyclopamine, reference compound], which “observable toxicity in treated animals” value [4] is on record?
**A.** absence of observable toxicity

**Q.** And the IC50 (Shh signaling [5]; Mus musculus, Shh Light2, read-out: IC50, inhibition of Shh signaling)?
**A.** 300 nM

**Q.** Which “photoaffinity cross-linking of SmoA1” value (SmoA1) does the source give for PA-cyclopamine here?
**A.** unable to efficiently cross-link

**Q.** And the “photoaffinity labeling of Smo-Myc3 (two forms)” value (Smo [1]; Cos-1 cells transiently transfected, upon photoactivation)?
**A.** readily labeled

**Q.** And the “photoaffinity labeling of endogenous mouse Smo” value (Smo [1]; live NTH-3T3 cells, light activation)?
**A.** did not detectably label

**Q.** What about the IC50 (Shh signaling [5]; Shh-LIGHT2 mouse cultured cell assay, read-out: IC50, inhibition of Shh signaling) of the same compound?
**A.** 150 nM
